Laboratory results as given in PubChem BioAssay AID248 (DTP/NCI, 2004).
Several values for one entry are separate records, joined by “and”; a condition that tells them apart may be missing. Equal values may be shown once. Toxic doses and inconclusive results are not listed. Cut-off read from the data, not from the text of the source: active = T/C of 150% or more; inactive = T/C below 125%.

Tested on: L1210 leukemia ip in BDF1 mice, survival T/C
Experiment: NCI In Vivo Anticancer Drug Screen. Data for tumor model L1210 Leukemia (intraperitoneal) in B6D2F1 (BDF1) mice
Conditions: endpoint: mean survival time, higher = longer survival
Summary of the method: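 Antitumor effect is assessed in tumor-bearing animals. Survival in the compound arm is compared with a vehicle-dosed control arm and expressed as their quotient.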

[1] = dose: 100.0 mg/kg/injection, schedule: Q01DX009 (ip), vehicle: Klucel (hydroxypropylcellulose) (HPC)
[2] = dose: 100.0 mg/kg/injection, schedule: Q04DX003 (ip), vehicle: Klucel (hydroxypropylcellulose) (HPC)
[3] = dose: 200.0 mg/kg/injection, schedule: Q04DX003 (ip), vehicle: Klucel (hydroxypropylcellulose) (HPC)
[4] = dose: 400.0 mg/kg/injection, schedule: Q01DX009 (ip), vehicle: Klucel (hydroxypropylcellulose) (HPC)
[5] = dose: 400.0 mg/kg/injection, schedule: Q04DX003 (ip), vehicle: Klucel (hydroxypropylcellulose) (HPC)
[6] = dose: 50.0 mg/kg/injection, schedule: Q01DX009 (ip), vehicle: saline with Tween-80
[7] = dose: 50.0 mg/kg/injection, schedule: Q04DX003 (ip), vehicle: saline with Tween-80
[8] = dose: 100.0 mg/kg/injection, schedule: Q01DX009 (ip), vehicle: saline with Tween-80
[9] = dose: 100.0 mg/kg/injection, schedule: Q04DX003 (ip), vehicle: saline with Tween-80
[10] = dose: 200.0 mg/kg/injection, schedule: Q01DX009 (ip), vehicle: saline with Tween-80
[11] = dose: 200.0 mg/kg/injection, schedule: Q04DX003 (ip), vehicle: saline with Tween-80
[12] = dose: 400.0 mg/kg/injection, schedule: Q01DX009 (ip), vehicle: saline with Tween-80
[13] = dose: 400.0 mg/kg/injection, schedule: Q04DX003 (ip), vehicle: saline with Tween-80
[14] = dose: 25.0 mg/kg/injection, schedule: Q04DX003 (ip), vehicle: Klucel (hydroxypropylcellulose) (HPC)
[15] = dose: 50.0 mg/kg/injection, schedule: Q04DX003 (ip), vehicle: Klucel (hydroxypropylcellulose) (HPC)
[16] = dose: 100.0 mg/kg/injection, schedule: Q04DX003 (ip), vehicle: saline
[17] = dose: 200.0 mg/kg/injection, schedule: Q04DX003 (ip), vehicle: saline
[18] = dose: 400.0 mg/kg/injection, schedule: Q04DX003 (ip), vehicle: saline
[19] = dose: 100.0 mg/kg/injection, schedule: Q01DX001 (ip), vehicle: carboxymethylcellulose (CMC)
[20] = dose: 200.0 mg/kg/injection, schedule: Q01DX001 (ip), vehicle: carboxymethylcellulose (CMC)
[21] = dose: 400.0 mg/kg/injection, schedule: Q01DX001 (ip), vehicle: carboxymethylcellulose (CMC)
[22] = dose: 100.0 mg/kg/injection, schedule: Q04DX002 (ip), vehicle: saline
[23] = dose: 200.0 mg/kg/injection, schedule: Q04DX002 (ip), vehicle: saline
[24] = dose: 100.0 mg/kg/injection, schedule: Q04DX002 (ip), vehicle: saline with Tween-80
[25] = dose: 100.0 mg/kg/injection, schedule: Q01DX001 (ip), vehicle: saline
[26] = dose: 200.0 mg/kg/injection, schedule: Q01DX001 (ip), vehicle: saline
[27] = dose: 400.0 mg/kg/injection, schedule: Q01DX001 (ip), vehicle: saline
[28] = dose: 100.0 mg/kg/injection, schedule: Q01DX001 (ip), vehicle: saline with Tween-80
[29] = dose: 200.0 mg/kg/injection, schedule: Q01DX001 (ip), vehicle: saline with Tween-80
[30] = dose: 200.0 mg/kg/injection, schedule: Q04DX002 (ip), vehicle: saline with Tween-80
[31] = dose: 400.0 mg/kg/injection, schedule: Q01DX001 (ip), vehicle: saline with Tween-80
[32] = dose: 400.0 mg/kg/injection, schedule: Q04DX002 (ip), vehicle: saline with Tween-80

Measured: T/C

O=C(/C=C/C(=O)Oc1ccc(Cl)cc1Cl)Oc1ccc(Cl)cc1Cl
inactive: [1] 94 % of control | [2] 111 % of control | dose: 200.0 mg/kg/injection, schedule: Q01DX009 (ip), vehicle: Klucel (hydroxypropylcellulose) (HPC) 95 % of control | [3] 100 % of control | [4] 97 % of control | [5] 100 % of control

CCC(=O)c1ccc2ccccc2c1
inactive: [2] 100 % of control | [3] 104 % of control | [5] 100 % of control

CCC(CC)COCCCN
inactive: dose: 12.5 mg/kg/injection, schedule: Q01DX009 (ip), vehicle: saline with Tween-80 97 % of control | dose: 12.5 mg/kg/injection, schedule: Q04DX003 (ip), vehicle: saline with Tween-80 97 % of control | dose: 25.0 mg/kg/injection, schedule: Q01DX009 (ip), vehicle: saline with Tween-80 98 % of control | dose: 25.0 mg/kg/injection, schedule: Q04DX003 (ip), vehicle: saline with Tween-80 95 % of control | [6] 93 % of control | [7] 94 % of control

Cc1ccc(N2C(=O)CC(Sc3ccccc3N)C2=O)cc1Cl (stereo not given)
inactive: [1] 88 % of control | [8] 88 % of control | [2] 93 % of control | [9] 86 % of control and 89 % of control | [10] 96 % of control | [3] 93 % of control | [11] 87 % of control and 91 % of control | [4] 90 % of control | [12] 95 % of control | [5] 94 % of control | [13] 86 % of control and 87 % of control

O=C1c2ccccc2C(=O)N1c1c[nH]c(=O)[nH]c1=O
inactive: [14] 95 % of control | [15] 93 % of control

O=c1cc(/C=N/Nc2ccc([N+](=O)[O-])cc2[N+](=O)[O-])c2cccc3c2n1CCC3
inactive: [8] 93 % of control | [9] 98 % of control | [11] 101 % of control | [12] 93 % of control | [13] 102 % of control

O=C(NNC(=O)c1cccc2ccccc12)c1cc(Br)ccc1Br
inactive: [16] 97 % of control | [17] 87 % of control | [18] 100 % of control

FC(F)(F)C(Cl)(Cc1ccc2ccccc2n1)C(F)(F)F
inactive: [7] 102 % of control | [8] 105 % of control | [9] 101 % of control | [10] 100 % of control | [11] 102 % of control | [12] 103 % of control | [13] 94 % of control

CC/C=C\CCCCCCO
inactive: [19] 97 % of control and 94 % of control | [20] 94 % of control | [21] 89 % of control and 97 % of control

OCCOC(O)C(Cl)(Cl)Cl (stereo not given)
inactive: [22] 100 % of control | [23] 92 % of control | dose: 400.0 mg/kg/injection, schedule: Q04DX002 (ip), vehicle: saline 95 % of control

O=C(Nc1ccccn1)c1ccccc1
inactive: [24] 99 % of control

CS(=O)(=O)Oc1c(Cl)c(Cl)c(OS(C)(=O)=O)c(Cl)c1Cl
inactive: [19] 101 % of control | [20] 92 % of control | [21] 98 % of control

COc1cc(N(CCCl)CCCl)ccc1C=Nc1ccc2c(c1)nc(C)n2C
inactive: dose: 68.8 mg/kg/injection, schedule: Q04DX002 (ip), vehicle: Klucel (hydroxypropylcellulose) (HPC) 104 % of control | dose: 137.5 mg/kg/injection, schedule: Q04DX002 (ip), vehicle: Klucel (hydroxypropylcellulose) (HPC) 101 % of control | dose: 275.0 mg/kg/injection, schedule: Q04DX002 (ip), vehicle: Klucel (hydroxypropylcellulose) (HPC) 117 % of control

C#CCNCc1ccccc1
inactive: [6] 101 % of control and 92 % of control | [25] 100 % of control | [8] 101 % of control and 106 % of control | [22] 94 % of control and 96 % of control and 108 % of control | [16] 98 % of control | [26] 96 % of control | [23] 101 % of control (2×) and 112 % of control | [17] 101 % of control | [27] 98 % of control

O=C(O)CC(NC(=O)OCc1ccccc1)c1ccccc1 (stereo not given)
inactive: [28] 92 % of control | [8] 93 % of control and 102 % of control | [24] 110 % of control | [9] 97 % of control | [29] 90 % of control | [10] 98 % of control and 91 % of control | [30] 95 % of control | [11] 92 % of control | [31] 92 % of control | [32] 100 % of control | [13] 93 % of control

CCOC(=O)c1ccc(Nc2sc(C(=O)c3ccc(-c4ccccc4)cc3)c(N)c2C#N)cc1
inactive: [24] 92 % of control | [30] 86 % of control | [32] 95 % of control

CC(C)C(C#N)c1ccccc1 (stereo not given)
inactive: dose: 12.5 mg/kg/injection, schedule: Q01DX009 (ip), vehicle: Klucel (hydroxypropylcellulose) (HPC) 97 % of control | dose: 25.0 mg/kg/injection, schedule: Q01DX009 (ip), vehicle: Klucel (hydroxypropylcellulose) (HPC) 100 % of control | [14] 96 % of control | dose: 50.0 mg/kg/injection, schedule: Q01DX009 (ip), vehicle: Klucel (hydroxypropylcellulose) (HPC) 97 % of control | [15] 98 % of control

O=C1C2C3CCC(CC3)C2C(O)C2C3CCC(C3)C12 (stereo not given)
inactive: [6] 93 % of control | [8] 96 % of control | [10] 93 % of control

CCOC(=O)/C=C/c1c(OC)cc(OC)cc1OC
inactive: dose: 100.0 mg/kg/injection, schedule: Q01DX009 (ip), vehicle: other 97 % of control | [16] 101 % of control | dose: 200.0 mg/kg/injection, schedule: Q01DX009 (ip), vehicle: other 106 % of control | [17] 101 % of control | dose: 400.0 mg/kg/injection, schedule: Q01DX009 (ip), vehicle: other 94 % of control | [18] 93 % of control

O=[N+]([O-])c1ccc(Cl)c(C(=S)N2CCCCC2)c1
inactive: [2] 99 % of control | [3] 96 % of control | [5] 96 % of control

COc1ccc2c(c1)CCNC2CCO (stereo not given)
inactive: [16] 103 % of control

C1CCC(CCCC(CCCC2CCCC2)CCCC2CCCC2)C1
inactive: [28] 93 % of control | [29] 93 % of control | [31] 89 % of control

O=C1C=C(OCc2ccccc2)C(=O)C(OCc2ccccc2)=C1
inactive: [2] 93 % of control | [3] 96 % of control | [5] 95 % of control

ClCCN(CCCl)CCNc1ccnc2cc(Cl)ccc12
inactive: dose: 5.0 mg/kg/injection, schedule: Q01DX001 (ip), vehicle: saline 100 % of control | dose: 10.0 mg/kg/injection, schedule: Q01DX001 (ip), vehicle: saline 108 % of control | dose: 20.0 mg/kg/injection, schedule: Q01DX001 (ip), vehicle: saline 117 % of control | dose: 40.0 mg/kg/injection, schedule: Q01DX001 (ip), vehicle: saline 116 % of control

CC(=O)NC1C(O)CC(O)(C(=O)O)OC1C(O)C(O)CO (stereo not given)
inactive: [25] 98 % of control | [26] 100 % of control | [27] 94 % of control

O=c1cc[nH]c(=O)o1
inactive: dose: 63.0 mg/kg/injection, schedule: Q01DX009 (ip), vehicle: water 89 % of control

O=C(CCCCl)CC(O)(C(F)(F)F)C(F)(F)F
inactive: [8] 104 % of control | [9] 101 % of control | [10] 93 % of control | [11] 94 % of control | [13] 100 % of control

ON=C1c2ccccc2-c2ccccc21
inactive: dose: 100.0 mg/kg/injection, schedule: Q04DX002 (ip), vehicle: Klucel (hydroxypropylcellulose) (HPC) 96 % of control | dose: 200.0 mg/kg/injection, schedule: Q04DX002 (ip), vehicle: Klucel (hydroxypropylcellulose) (HPC) 93 % of control | dose: 400.0 mg/kg/injection, schedule: Q04DX002 (ip), vehicle: Klucel (hydroxypropylcellulose) (HPC) 104 % of control

CC1(C)c2ccccc2C(C)(C)[N+]1(C)C
inactive: dose: 100.0 mg/kg/injection, schedule: Q01DX001 (ip), vehicle: other 101 % of control
